# Test results: BindingDB's records for doi:10.7270/Q2SB445M (Nmmlsc, 2009)
# Molecular target: Ras-related protein Rab-7a (Canis lupus familiaris, UniProt P18067)
# Assay: extra analogs blocking nucleotide binding to Rab7 – biochemical, additional analogs, wildtype, multiplex bead flow cytometry, SAR follow-up (AID 2036)
# Ras-related protein Rab-7a, sequence (P18067 whole entry): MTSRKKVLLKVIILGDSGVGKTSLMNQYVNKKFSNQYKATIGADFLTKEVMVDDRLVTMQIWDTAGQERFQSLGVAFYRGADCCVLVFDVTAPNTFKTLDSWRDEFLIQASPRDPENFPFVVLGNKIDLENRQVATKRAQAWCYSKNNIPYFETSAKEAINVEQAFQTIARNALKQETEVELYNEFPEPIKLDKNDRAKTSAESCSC
row,Ki,SMILES
1,1.56 µM,O=C1Nc2c(F)cccc2C1=C1Nc2ccccc2C1=O
2,0.87 µM,O=C1NC(=S)N/C1=C1\C(=O)Nc2ccccc21 [(3Z)-3-(5-oxo-2-sulfanylideneimidazolidin-4-ylidene)-1H-indol-2-one]
